The values below come from paper PMC9405847, “Design, Synthesis and Pharmacological Evaluation of Novel Conformationally Restricted N-arylpiperazine Derivatives Characterized as D2/D3 Receptor Ligands, Candidates for the Treatment of Neurodegenerative Diseases” (Biomolecules, 2022).

One data set addresses T1, D2R (Rattus norvegicus, UniProt P61169).
T1 construct: from tissue; host or cells: striatum of adult male Wistar rats
The data set can be described thus: Competition binding of [3H]-YM-09151-2 to D2-like receptors in rat striatal membranes. On the procedure:
Finally, to evaluate the selectivity of the substances, classic binding to D2-like receptors was performed using rat striatal membranes. Adult male Wistar rats (2.5–3 months) were killed by decapitation, their brains were immediately removed on ice and the striatum was dissected and stored in liquid nitrogen until use. This procedure was approved by the Institutional Ethical Committee for Animal Care from the Federal University of Rio de Janeiro (CEUA no. 052/19; 30 April 2019). The striatum was homogenized in a motorized Potter-type apparatus with a Teflon piston at 4 °C at 20 volumes per gram of tissue in ice-cold 50 mM Tris-HCl buffer (pH 7.4) containing 8 mM MgCl2 and 5 mM ethylenediaminetetraacetic acid (EDTA). The resulting suspension was ultracentrifuged at 48,000× g at 4 °C for 20 min. The pellet was resuspended in 20 volumes of the same buffer and incubated at 37 °C for 10 min to remove endogenous neurotransmitters. This suspension was cooled and ultracentrifuged at 48,000× g for 20 min at 4 °C [46]. The final pellet was resuspended and stored in liquid nitrogen until use.
In a medium containing the antagonist radioligand [^3H]-YM-09151-2 0.1 nM, 120 mM NaCl, 5 mM KCl, 5 mM MgCl2, 1.5 mM CaCl2, 1 mM EDTA and 50 mM Tris-HCl (pH 7.2 a 25 °C), 50 µg of […] striatum membrane was incubated in the dark (sodium light) for 60 min at 37 °C. Nonspecific binding was estimated using sulpiride (30 µM).

Data set [1] deals with human D3 dopaminergic receptor (D3R) (Homo sapiens, UniProt P35462). The data set can be described thus: Competition binding of [3H]-spiperone and GTP-shift (functional binding) in membranes of recombinant Chem-1 cells. Conditions: for IC50: D3R, [3H]-spiperone 0.5 nM, 95% confidence interval in parentheses; for Na+-Shift (II/I) D3R: IC50 in NaCl + GTP (II) divided by IC50 in MgCl2 + CaCl2 (I); for Intrinsic Efficacy at D3R: classified from the Na+-shift (GTP-shift assay).

The mark [2] stands for this setting: IC50 (MgCl2 + CaCl2), medium I: 5 mM MgCl2 and 1.5 mM CaCl2.
[3] abbreviates: IC50 (NaCl + GTP), medium II: 154 mM NaCl and 1 mM GTP.

human D3 dopaminergic receptor (D3R), sequence (P35462 whole entry): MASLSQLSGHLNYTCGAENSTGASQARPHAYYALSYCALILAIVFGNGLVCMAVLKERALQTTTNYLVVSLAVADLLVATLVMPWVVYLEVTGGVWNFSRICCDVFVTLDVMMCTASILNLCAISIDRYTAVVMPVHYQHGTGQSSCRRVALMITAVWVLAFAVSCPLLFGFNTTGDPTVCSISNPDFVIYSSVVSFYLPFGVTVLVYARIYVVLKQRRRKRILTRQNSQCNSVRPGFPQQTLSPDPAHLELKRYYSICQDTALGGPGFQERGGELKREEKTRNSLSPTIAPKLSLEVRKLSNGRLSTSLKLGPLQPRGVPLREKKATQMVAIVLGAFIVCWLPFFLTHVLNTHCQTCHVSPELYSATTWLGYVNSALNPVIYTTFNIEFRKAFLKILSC
T1 sequence (P61169 whole entry): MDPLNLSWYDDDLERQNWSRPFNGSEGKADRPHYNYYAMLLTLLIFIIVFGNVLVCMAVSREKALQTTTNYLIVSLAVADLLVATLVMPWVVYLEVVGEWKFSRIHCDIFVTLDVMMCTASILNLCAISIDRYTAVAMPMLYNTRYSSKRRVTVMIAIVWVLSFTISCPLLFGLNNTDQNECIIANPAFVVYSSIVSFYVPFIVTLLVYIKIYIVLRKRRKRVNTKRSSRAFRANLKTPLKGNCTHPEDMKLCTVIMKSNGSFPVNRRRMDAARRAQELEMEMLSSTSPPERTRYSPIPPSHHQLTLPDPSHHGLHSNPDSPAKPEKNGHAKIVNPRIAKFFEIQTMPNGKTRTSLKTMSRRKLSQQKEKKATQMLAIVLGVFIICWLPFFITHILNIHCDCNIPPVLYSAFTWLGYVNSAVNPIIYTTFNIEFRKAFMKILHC

For orientation: Ki means the dissociation constant of the complex between target and ligand, obtained from inhibition or displacement. High values mean a looser hold on the target, low ones a stronger hold on the target. For orientation: melting point means the temperature, or range, at which the solid turns liquid. In general, IC50 refers to the concentration that gives 50% inhibition. In turn, `Cc1cc2c(cc1S(=O)(=O)Nc1ccc(CN3CCN(c4ccccc4)CC3)cc1)OCO2` [Compound 5a, 6-Methyl-N-(4-((4-phenylpiperazin-1-yl)methyl)phenyl) Benzo [d] [1,3] Dioxole-5-sulfonamide] displayed a melting point of 154 to 156 °C. This compound registered a Ki at D2R of 440 nM. For the same compound, the concentration for half-maximal inhibition (IC50) in data set [1] (setting [2]) is 1100 nM. Besides, the IC50 in data set [1] (setting [3]) came to 1200 nM. In data set [1], the “Na+-Shift (II/I) D3R” value worked out at 1.1 and the “Intrinsic Efficacy at D3R” value was “antagonist”.
Consider `COc1ccccc1N1CCN(Cc2ccc(NS(=O)(=O)c3ccc4c(c3)OCO4)cc2)CC1` [Compound 5e, N-(4-((4-(2-Methoxyphenyl)piperazin-1-yl)methyl)phenyl) Benzo [d] [1,3] Dioxole-5-sulfonamide], for which the melting point fell in the range of 149 to 151 °C. Besides, the Ki on D2R was determined as 100 nM. In addition, the IC50 in data set [1] (setting [2]) worked out at 230 nM. The IC50 in data set [1] (setting [3]) was found to be 200 nM. In data set [1], the “Na+-Shift (II/I) D3R” value came to 0.9 and the “Intrinsic Efficacy at D3R” value is reported as “antagonist”.
Turning to `COc1ccccc1N1CCN(Cc2ccc(NS(=O)(=O)c3cc4c(cc3C)OCO4)cc2)CC1` [Compound 5b, N-(4-((4-(2-Methoxyphenyl)piperazin-1-yl)methyl)phenyl)-6-methylbenzo [d] [1,3] Dioxole-5-sulfonamide], the melting point lay in the range of 183 to 185 °C. The Ki at D2R came to 80 nM. The IC50 in data set [1] (setting [2]) stood at 760 nM. Besides, the IC50 in data set [1] (setting [3]) is 290 nM. Besides, in data set [1], the “Na+-Shift (II/I) D3R” value stood at 0.4 and the “Intrinsic Efficacy at D3R” value was “weak inverse agonist”.
Compound `Cc1cc2c(cc1S(=O)(=O)Nc1ccc(CN3CCN(c4cccc(Cl)c4Cl)CC3)cc1)OCO2` [Compound 5c, N-(4-((4-(2,3-Dichlorophenyl)piperazin-1-yl)methyl)phenyl)-6-methylbenzo [d] [1,3] Dioxole-5-sulfonamide] had a melting point of 192 to 194 °C. Moreover, the Ki at D2R is 400 nM. The IC50 in data set [1] (setting [2]) was found to be 750 nM. In data set [1] (setting [3]), the IC50 came out at 780 nM. In data set [1], the “Na+-Shift (II/I) D3R” value is recorded as 1 and the “Intrinsic Efficacy at D3R” value was “antagonist”.
In turn, `O=S(=O)(Nc1ccc(CN2CCN(c3ccccc3)CC2)cc1)c1ccc2c(c1)OCO2` [Compound 5d, N-(4-((4-Phenylpiperazin-1-yl) Methyl) Phenyl) Benzo [d] [1,3] Dioxole-5-Sulfonamide] came in with a melting point of 178 to 180 °C. For the same compound, on D2R, the Ki is 820 nM. For the same compound, in data set [1] (setting [2]), the IC50 was 420 nM. In addition, the IC50 in data set [1] (setting [3]) was determined as 990 nM. In addition, in data set [1], the “Na+-Shift (II/I) D3R” value came out at 2.4 and the “Intrinsic Efficacy at D3R” value is listed as “partial agonist”.
Compound `O=S(=O)(Nc1ccc(CN2CCN(c3cccc(Cl)c3Cl)CC2)cc1)c1ccc2c(c1)OCO2` [Compound 5f, N-(4-((4-(2,3-Dichlorophenyl)piperazin-1-yl)methyl)phenyl) Benzo [d] [1,3] Dioxole-5-sulfonamide] had a melting point of 163 to 166 °C. The compound also gave a Ki at D2R of 200 nM. In addition, in data set [1] (setting [2]), the IC50 came out at 110 nM. The IC50 in data set [1] (setting [3]) turned out to be 200 nM. Further, in data set [1], the “Na+-Shift (II/I) D3R” value was 1.8 and the “Intrinsic Efficacy at D3R” value is reported as “partial agonist”.
